The source made the active and inactive calls.
Key:
[1] = SNU-C1 cell viability reduction, dose response, CellTiter-Glo luminescence (AID 1117323); format: functional, cell-based
[2] = cytotoxicity toward HCT116 cells – cell-based, CellTiter-Glo luminescence, IC50, dose response (AID 1117332); format: functional; settings: HCT-116
[3] = HCT116 cell viability decrease, GSK3B pretreatment – CellTiter-Glo, IC50, dose response (AID 1117339); format: functional; settings: HCT-116
[4] = cytotoxicity toward Colo320 cells – cell-based, CellTiter-Glo luminescence, IC50, dose response (AID 1117334); format: functional; settings: COLO 320
[5] = CellTiter-Glo luminescent dose response of DLD-1 viability loss (AID 1117352); format: functional
[6] = cytotoxicity toward HT-29 cells – cell-based, CellTiter-Glo luminescence, IC50, dose response (AID 1117330); format: functional
[7] = Concentration-dependent survival of SW480 colon cancer line, luminescence detection with CellTiter-Glo, half-maximal inhibitory concentration (AID 1117338); format: functional
[8] = RKO cell viability reduction, dose response, CellTiter-Glo luminescence (AID 1117322); format: functional
[9] = target: Heat shock protein HSP 90-alpha (Homo sapiens, UniProt P07900); experiment: Luminescence-based dose response biochemical high throughput screening assay for inhibitors of the Heat Shock Protein 90 (HSP90). [Related pubchem assays: 1831 (Summary AID.), 1846 (Confirmation screen.), 1789 (Primary screen.)]
[10] = target: Glyceraldehyde-3-phosphate dehydrogenase (Homo sapiens, UniProt P04406)
[11] = target: T1, Bcl-2-related protein A1 (Mus musculus, UniProt Q07440); experiment: Bfl-1 binding inhibitors, SAR follow-up, biochemical, fluorescence polarization (AID 1070)
T1 sequence (Q07440 whole entry): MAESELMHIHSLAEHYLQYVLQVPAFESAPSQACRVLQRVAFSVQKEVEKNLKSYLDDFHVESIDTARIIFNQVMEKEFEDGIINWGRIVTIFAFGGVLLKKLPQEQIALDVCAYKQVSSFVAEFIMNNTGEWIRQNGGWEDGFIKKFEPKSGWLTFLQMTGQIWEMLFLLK

[12] = target: T1, Bcl-2-related protein A1; experiment: Bfl-1 inhibitors blocking BH3 peptide binding, confirmation, biochemical, TR-FRET, mouse Bfl-1 (AID 621);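 note: TR-FRET binding of GST-Bfl-1 to FITC-labelled Bid peptide via terbium antibody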
[13] = target: T2, Replicative DNA helicase DnaB (Mycobacterium tuberculosis, UniProt P9WMR3); experiment: DnaB intein splicing inhibitors, dose response, biochemical, cell-free fluorescence (AID 449749); format: functional
T2 sequence (P9WMR3 whole entry): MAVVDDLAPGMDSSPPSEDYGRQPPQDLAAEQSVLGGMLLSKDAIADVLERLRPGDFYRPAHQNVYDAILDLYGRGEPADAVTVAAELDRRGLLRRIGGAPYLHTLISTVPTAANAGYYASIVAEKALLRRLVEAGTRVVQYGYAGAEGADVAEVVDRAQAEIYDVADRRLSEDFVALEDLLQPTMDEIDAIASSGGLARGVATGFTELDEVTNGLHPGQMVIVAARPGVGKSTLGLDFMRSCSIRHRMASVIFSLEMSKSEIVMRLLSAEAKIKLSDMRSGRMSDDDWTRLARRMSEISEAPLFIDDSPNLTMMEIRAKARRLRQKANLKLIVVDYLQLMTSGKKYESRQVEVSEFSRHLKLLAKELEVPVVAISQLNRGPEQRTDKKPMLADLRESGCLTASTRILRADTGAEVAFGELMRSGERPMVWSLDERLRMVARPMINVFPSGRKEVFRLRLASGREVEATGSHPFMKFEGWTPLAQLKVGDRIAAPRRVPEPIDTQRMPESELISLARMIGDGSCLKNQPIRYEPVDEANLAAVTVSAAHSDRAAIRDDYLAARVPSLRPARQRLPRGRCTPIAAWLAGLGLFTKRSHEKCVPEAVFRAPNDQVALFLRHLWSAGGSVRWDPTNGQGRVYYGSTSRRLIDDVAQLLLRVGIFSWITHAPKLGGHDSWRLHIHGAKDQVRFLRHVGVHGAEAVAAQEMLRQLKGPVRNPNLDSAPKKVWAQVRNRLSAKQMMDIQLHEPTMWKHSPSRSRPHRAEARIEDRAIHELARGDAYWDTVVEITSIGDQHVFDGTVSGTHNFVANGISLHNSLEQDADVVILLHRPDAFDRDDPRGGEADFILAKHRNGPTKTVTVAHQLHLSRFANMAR

[14] = cells
[15] = cytotoxicity toward NIH3T3 fibroblasts, dose response, counter-screen, cell-based, ATP luminescence, mouse fibroblasts (AID 2010); format: functional;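 note: cells exposed to compound for about 90 hours before reading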
[16] = inhibitors of intracellular T. cruzi replication, confirmation, NIH3T3 host cells, beta-gal luminescence (AID 2044); format: functional, cell-based;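 note: intracellular parasites grown in NIH/3T3 mouse fibroblasts as host cells; luminescent beta-galactosidase reporter signal from transgenic T. cruzi replicating inside host cells; inhibitors lower the luminescence signal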
[17] = target: T3, Protein RecA (Mycobacterium tuberculosis, UniProt P9WHJ3); experiment: Fluorescence Cell-Free Homogeneous Dose Retest to Identify Inhibitors of RecA-Intein Splicing Activity. [Related pubchem assays (depositor defined):AID2097, AID2223, AID489010, AID492950]; format: functional
T3 sequence (P9WHJ3 whole entry): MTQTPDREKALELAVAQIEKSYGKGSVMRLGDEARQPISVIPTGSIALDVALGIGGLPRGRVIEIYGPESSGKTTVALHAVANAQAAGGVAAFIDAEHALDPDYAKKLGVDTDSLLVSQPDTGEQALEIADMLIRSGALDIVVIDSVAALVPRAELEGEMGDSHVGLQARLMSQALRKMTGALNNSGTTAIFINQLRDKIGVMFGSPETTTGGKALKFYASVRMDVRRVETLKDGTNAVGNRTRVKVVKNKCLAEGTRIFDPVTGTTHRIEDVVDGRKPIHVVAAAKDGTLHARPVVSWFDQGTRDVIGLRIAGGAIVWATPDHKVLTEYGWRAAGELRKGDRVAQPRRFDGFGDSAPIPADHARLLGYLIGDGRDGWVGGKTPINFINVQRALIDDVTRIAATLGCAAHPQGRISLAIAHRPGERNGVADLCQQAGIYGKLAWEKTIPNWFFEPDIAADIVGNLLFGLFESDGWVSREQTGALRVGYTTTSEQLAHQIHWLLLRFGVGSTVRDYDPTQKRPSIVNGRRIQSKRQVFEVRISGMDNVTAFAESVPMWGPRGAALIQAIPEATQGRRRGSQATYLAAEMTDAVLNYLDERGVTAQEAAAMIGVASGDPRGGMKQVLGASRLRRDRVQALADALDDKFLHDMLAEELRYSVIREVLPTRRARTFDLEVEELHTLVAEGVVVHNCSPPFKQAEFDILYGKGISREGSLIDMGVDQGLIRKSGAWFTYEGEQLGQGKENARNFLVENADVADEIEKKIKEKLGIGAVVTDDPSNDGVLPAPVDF

[18] = target: 5-hydroxytryptamine receptor 1A (Homo sapiens, UniProt P08908); format: functional
[19] = target: T4, Heat shock factor protein 1 (Mus musculus, UniProt P38532); experiment: inhibition of MG132-induced HSE-luciferase signal, confirmation, cell-based, NIH3T3, luminescence, dose retest (AID 2382); format: functional;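 note: NIH3T3 fibroblasts with HSF1-driven luciferase reporter stressed by proteasome inhibitor MG132; luminescence from HSF1-driven luciferase expression after 8 hours of MG132 stress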
T4 sequence (P38532 whole entry): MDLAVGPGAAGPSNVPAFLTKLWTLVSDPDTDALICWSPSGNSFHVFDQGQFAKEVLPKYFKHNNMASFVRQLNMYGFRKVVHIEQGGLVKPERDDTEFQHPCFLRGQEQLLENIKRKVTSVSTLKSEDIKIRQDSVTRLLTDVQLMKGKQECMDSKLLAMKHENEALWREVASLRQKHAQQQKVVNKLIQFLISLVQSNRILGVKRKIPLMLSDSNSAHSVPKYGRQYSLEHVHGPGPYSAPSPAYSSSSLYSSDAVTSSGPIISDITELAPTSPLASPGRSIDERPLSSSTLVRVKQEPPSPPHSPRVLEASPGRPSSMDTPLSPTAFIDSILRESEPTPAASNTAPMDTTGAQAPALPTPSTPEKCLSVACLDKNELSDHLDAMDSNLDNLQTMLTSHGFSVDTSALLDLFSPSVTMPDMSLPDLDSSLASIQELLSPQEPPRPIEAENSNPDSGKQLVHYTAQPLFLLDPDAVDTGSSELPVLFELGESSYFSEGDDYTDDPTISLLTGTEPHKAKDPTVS

[20] = target: G-protein coupled receptor 183 (Homo sapiens, UniProt P32249); experiment: SAR confirmation of small molecule antagonists of the EBI2 receptor via a luminescent beta-arrestin assa.; format: functional
[21] = target: Bifunctional protein GlmU (Mycobacterium tuberculosis, UniProt P9WMN3); experiment: Inhibitors of Mycobacterial Glucosamine-1-phosphate acetyl transferase (GlmU). Secondary screen.; design: species or system Mycobacterium tuberculosis H37Rv
[22] = target: Dual specificity tyrosine-phosphorylation-regulated kinase 1A (Rattus norvegicus, UniProt Q63470); format: biochemical, Homo sapiens
[23] = target: T5, Estrogen receptor (Homo sapiens, UniProt P03372);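 note: potency for inhibiting coactivator peptide recruitment to the receptor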
T5 sequence (P03372 whole entry): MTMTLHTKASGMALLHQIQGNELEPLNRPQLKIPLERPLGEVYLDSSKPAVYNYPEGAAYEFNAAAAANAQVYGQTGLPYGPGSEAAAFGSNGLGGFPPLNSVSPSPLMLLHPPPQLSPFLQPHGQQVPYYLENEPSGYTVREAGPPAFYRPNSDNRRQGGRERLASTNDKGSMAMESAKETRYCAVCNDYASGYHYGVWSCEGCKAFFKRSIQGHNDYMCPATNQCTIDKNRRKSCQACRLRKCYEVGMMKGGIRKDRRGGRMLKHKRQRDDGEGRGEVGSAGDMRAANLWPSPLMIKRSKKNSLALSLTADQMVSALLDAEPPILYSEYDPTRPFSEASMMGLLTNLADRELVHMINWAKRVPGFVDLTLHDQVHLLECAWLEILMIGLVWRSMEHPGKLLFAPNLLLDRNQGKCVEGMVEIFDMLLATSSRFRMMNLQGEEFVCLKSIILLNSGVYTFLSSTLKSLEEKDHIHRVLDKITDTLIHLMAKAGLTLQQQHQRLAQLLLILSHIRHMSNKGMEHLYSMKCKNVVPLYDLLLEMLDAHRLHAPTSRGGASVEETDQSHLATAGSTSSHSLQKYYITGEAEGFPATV

[24] = target: Peroxisome proliferator-activated receptor gamma/Nuclear receptor corepressor 2 (Homo sapiens, UniProt P37231+Q9Y618); experiment: Counterscreen for NR2E3 inverse agonists: TR-FRET-based biochemical high throughput dose response assay to identify inverse agonists of the interaction between peroxisome proliferator-activated receptor gamma (PPARg) and nuclear receptor co-repressor 2 (NCOR2).; format: functional
[25] = target: Photoreceptor-specific nuclear receptor (Homo sapiens, UniProt Q9Y5X4); experiment: NR2E3 inverse agonists, dose response, biochemical, TR-FRET (AID 463256); format: functional
[26] = target: Ephrin type-A receptor 4 (Mus musculus, UniProt Q03137); experiment: inhibitors of EphA4 binding to KYL peptide, primary screen, biochemical, colorimetric, mouse EphA4 (AID 689); format: functional
[27] = target: T6, Voltage-gated inwardly rectifying potassium channel KCNH2 (Homo sapiens, UniProt Q12809); experiment: hERG protection from proarrhythmic block, potency, dose response, cell-based, thallium flux (AID 2121); format: ADME
[28] = target: T6, Voltage-gated inwardly rectifying potassium channel KCNH2; experiment: concentration dependence of hERG rescue from dofetilide, dose response, manual patch clamp, HEK293 cells (AID 2638); format: ADME
[29] = target: T7, NADPH oxidase 1 (Homo sapiens, UniProt Q9Y5S8); experiment: Late stage results from the probe development effort to identify inhibitors of NOX1: HEK/293 IC50. [Related pubchem assays: 1796 (Summary AID (NOX1)), 2752 (Primary screen (NOX1 inhibitors, synthesized analogs set 2)), 2664 (Primary screen (NOX1 inhibitors, synthesized analogs)), 1792 (Primary Screen (NOX1)), 2545 (Confirmation screen (NOX1 …; format: functional
[30] = target: T7, NADPH oxidase 1; experiment: NOX1 inhibitors, concentration-response, dose response, cell-based, luminescence, cherry picks 2 (AID 434997); format: functional
[31] = test system: Vero; experiment: host cell cytotoxicity of antiviral hits, dose response, cytotoxicity control for West Nile virus antiviral project, secondary assay (AID 1650); format: functional; settings: Chlorocebus sabaeus

T7 sequence (Q9Y5S8 whole entry): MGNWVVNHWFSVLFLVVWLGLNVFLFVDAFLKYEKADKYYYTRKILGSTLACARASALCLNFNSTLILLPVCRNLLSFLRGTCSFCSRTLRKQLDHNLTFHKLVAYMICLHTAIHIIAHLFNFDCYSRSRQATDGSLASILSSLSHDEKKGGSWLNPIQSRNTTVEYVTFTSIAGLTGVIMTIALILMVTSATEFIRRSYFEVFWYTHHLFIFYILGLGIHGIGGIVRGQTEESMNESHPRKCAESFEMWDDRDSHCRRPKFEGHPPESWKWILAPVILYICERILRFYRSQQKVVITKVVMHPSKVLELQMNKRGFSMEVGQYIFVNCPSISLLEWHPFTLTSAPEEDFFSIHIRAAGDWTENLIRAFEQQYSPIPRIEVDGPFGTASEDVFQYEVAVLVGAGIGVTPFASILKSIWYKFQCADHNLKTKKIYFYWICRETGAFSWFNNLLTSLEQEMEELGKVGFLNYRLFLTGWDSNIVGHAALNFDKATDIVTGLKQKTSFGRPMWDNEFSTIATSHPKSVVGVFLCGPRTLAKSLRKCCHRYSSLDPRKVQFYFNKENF
T6 sequence (Q12809 whole entry): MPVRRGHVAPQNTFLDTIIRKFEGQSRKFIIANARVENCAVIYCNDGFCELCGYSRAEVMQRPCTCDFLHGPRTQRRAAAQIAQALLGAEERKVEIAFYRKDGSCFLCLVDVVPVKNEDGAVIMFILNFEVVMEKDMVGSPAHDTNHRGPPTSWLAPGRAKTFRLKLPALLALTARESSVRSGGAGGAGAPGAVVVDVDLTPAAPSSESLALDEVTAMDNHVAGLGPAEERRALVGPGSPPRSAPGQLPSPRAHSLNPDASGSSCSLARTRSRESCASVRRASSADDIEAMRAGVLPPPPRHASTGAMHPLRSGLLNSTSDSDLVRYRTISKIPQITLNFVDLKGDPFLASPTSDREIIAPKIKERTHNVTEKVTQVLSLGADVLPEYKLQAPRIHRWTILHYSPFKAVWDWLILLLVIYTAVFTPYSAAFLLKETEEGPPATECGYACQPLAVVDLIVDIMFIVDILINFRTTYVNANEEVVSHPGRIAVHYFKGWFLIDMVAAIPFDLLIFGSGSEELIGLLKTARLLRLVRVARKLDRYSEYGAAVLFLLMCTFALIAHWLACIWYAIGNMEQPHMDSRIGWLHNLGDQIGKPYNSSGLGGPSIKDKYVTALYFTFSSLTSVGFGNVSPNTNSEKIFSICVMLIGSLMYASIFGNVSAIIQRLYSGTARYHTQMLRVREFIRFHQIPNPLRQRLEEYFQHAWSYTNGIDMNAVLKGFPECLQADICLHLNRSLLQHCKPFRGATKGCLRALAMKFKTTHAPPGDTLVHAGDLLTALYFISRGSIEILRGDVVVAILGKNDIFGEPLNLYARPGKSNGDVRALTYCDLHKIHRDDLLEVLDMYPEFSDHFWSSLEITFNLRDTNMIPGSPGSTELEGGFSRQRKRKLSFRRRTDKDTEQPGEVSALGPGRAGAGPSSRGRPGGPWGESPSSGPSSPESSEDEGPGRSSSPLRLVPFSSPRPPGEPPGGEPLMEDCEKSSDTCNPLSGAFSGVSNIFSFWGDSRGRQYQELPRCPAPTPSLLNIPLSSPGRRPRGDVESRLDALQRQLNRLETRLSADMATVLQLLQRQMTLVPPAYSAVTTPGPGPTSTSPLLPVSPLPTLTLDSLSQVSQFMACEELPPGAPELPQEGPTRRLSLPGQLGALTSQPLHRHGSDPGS
Sequence of Glyceraldehyde-3-phosphate dehydrogenase (P04406 whole entry): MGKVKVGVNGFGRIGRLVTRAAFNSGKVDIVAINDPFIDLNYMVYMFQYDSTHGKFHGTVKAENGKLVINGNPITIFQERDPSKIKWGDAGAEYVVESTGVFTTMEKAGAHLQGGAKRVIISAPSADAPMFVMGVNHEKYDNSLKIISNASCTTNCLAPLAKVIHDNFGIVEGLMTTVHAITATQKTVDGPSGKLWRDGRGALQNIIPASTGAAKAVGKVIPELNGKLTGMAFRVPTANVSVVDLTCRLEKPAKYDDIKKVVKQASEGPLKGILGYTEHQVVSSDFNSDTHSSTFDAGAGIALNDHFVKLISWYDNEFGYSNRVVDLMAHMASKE
Sequence of G-protein coupled receptor 183 (P32249 whole entry): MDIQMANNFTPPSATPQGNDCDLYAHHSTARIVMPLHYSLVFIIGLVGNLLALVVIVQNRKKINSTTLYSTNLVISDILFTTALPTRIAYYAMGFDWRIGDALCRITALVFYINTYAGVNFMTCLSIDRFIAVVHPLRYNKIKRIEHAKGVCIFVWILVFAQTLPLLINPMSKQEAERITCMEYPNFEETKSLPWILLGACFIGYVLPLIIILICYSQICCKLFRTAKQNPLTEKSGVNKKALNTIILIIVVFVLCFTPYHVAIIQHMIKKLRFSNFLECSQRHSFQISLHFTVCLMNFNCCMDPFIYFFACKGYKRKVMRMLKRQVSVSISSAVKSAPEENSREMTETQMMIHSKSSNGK
Sequence of Bifunctional protein GlmU (P9WMN3 whole entry): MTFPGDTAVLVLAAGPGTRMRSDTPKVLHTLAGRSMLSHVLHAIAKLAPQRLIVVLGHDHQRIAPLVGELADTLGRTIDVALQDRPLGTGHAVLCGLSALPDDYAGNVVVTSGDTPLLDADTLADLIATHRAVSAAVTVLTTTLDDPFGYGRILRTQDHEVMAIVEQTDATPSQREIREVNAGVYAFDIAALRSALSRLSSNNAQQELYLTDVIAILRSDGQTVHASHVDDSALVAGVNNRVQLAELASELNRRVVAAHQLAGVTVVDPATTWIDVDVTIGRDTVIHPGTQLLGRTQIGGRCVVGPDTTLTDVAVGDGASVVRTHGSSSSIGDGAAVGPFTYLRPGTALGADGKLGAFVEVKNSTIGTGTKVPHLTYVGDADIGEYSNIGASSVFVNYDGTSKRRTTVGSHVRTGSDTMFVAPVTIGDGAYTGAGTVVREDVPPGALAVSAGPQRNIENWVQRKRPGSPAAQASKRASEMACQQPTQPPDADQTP
Sequence of 5-hydroxytryptamine receptor 1A (P08908 whole entry): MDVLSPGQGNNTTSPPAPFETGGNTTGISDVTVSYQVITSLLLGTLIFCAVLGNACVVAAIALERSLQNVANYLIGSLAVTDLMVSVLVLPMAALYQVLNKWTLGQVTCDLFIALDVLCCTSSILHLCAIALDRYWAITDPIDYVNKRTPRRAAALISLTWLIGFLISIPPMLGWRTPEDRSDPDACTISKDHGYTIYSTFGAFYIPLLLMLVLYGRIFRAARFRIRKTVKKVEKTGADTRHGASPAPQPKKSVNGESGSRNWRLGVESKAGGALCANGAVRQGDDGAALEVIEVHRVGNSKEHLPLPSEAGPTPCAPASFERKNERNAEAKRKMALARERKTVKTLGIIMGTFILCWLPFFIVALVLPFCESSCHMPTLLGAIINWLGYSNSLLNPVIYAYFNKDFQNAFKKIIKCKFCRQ
Sequence of Photoreceptor-specific nuclear receptor (Q9Y5X4 whole entry): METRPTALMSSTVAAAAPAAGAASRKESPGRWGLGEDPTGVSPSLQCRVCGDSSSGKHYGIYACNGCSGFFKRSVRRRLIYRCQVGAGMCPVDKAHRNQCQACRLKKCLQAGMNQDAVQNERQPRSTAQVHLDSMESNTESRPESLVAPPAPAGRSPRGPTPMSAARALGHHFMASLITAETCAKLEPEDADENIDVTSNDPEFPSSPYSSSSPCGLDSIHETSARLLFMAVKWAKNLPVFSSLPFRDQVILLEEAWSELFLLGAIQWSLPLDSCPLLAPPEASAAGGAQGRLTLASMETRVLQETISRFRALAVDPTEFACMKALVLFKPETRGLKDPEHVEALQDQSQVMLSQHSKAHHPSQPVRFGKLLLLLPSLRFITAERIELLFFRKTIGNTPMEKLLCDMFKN
Sequence of Ephrin type-A receptor 4 (Q03137 whole entry): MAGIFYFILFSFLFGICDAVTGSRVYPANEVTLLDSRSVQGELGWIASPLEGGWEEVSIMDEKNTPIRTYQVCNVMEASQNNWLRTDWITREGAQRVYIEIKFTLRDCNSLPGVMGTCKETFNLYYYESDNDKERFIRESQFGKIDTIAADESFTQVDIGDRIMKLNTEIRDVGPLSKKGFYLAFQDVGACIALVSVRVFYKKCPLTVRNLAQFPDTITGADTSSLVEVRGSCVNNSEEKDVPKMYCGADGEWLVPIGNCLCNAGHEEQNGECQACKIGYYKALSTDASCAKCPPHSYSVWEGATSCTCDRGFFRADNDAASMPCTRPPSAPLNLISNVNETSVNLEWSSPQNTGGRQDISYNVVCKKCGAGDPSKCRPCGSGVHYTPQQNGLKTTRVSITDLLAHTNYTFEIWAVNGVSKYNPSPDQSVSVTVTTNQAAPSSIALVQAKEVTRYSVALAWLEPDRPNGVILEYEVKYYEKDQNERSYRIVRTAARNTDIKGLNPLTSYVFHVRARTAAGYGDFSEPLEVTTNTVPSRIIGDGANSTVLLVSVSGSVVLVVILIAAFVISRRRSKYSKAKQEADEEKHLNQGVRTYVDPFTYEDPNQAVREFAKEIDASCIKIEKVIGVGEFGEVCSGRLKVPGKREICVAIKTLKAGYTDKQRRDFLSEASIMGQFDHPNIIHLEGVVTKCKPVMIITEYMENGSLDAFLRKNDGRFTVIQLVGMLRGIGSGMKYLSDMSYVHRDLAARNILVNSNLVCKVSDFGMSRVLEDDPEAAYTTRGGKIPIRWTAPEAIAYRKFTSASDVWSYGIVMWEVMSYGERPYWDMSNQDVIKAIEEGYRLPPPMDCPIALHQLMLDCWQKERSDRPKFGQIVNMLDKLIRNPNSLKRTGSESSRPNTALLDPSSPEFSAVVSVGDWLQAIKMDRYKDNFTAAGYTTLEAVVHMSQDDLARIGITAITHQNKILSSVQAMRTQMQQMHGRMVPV

## CCCCCCCCCCCCCCCCCCOP(=O)([O-])OC1CC[N+](C)(C)CC1 [PERIFOSINE]
[1]
  IC50: > 20 µM (inactive)
[2]
  IC50: 3.17 µM (active)
[3]
  IC50: 5.79 µM (inactive)
[4]
  IC50: 2.36 µM (active)
[5]
  IC50: > 20 µM (inactive)
[6]
  IC50: 6.9 µM (inactive)
[7]
  IC50: 0.852 µM (active)
[8]
  IC50: 2.1 µM (active)

## Cc1nc(CS(=O)(=O)c2ccc(Cl)cc2)sc1C(=O)O
[9]
  IC50: 12.1 µM (not active)

## O=C1C(Cl)=C(N2CCN(C(c3ccccc3)c3ccc(Cl)cc3)CC2)C(=O)N1c1ccc(Cl)c(Cl)c1 (stereo unspecified)
[10]
  IC50: > 100 µM (not active)
[11]
  IC50: > 100 µM (not active)
[12]
  IC50: > 100 µM (not active)

## O=C(CNC(=O)c1ccccc1)N/N=C/c1ccc([N+](=O)[O-])o1
[13]
  AC50: > 380 µM (inactive)
[14]
  EC50: 0.022 µM (active)
[15]
  EC50: > 60 µM (not active)
[16]
  EC50: < 0.1 µM (active)
[17]
  EC50: > 380 µM (inactive)

## COc1cc(CN2CCN(c3cccc(C)c3C)CC2)cc(OC)c1O
[18]
  EC50: > 50 µM (not active)
[19]
  EC50: > 195 µM (not active)

## O=C(/C=C/c1ccccc1C(F)(F)F)N1CCN(S(=O)(=O)c2ccc(Br)cc2)CC1
[20]
  IC50: 0.31 µM (active)

## CC(C)S(=O)(=O)C1=NSC2=NC(=O)/C(=C\c3ccc(-c4cccc(C(=O)O)c4)o3)C(=N)N21
[21]
  IC50: 13.5 µM (active)
[22]
  AC50: 8.1 µM (active)

## Fc1ccc(CNc2nc3ccccc3n3cnnc23)cc1
[23]
  IC50: > 50 µM (not active)
[24]
  IC50: 1.42 µM (active)
[25]
  IC50: 2.69 µM (active)

## O=C1/C(=C\c2ccco2)SC(=S)N1Cc1ccccc1
[26]
  IC50: 3.21 µM (active)

## O=C(O)c1cc(Cl)ccc1Nc1nc2cc(Cl)ccc2o1
[27]
  EC50: 11.7 µM (active)
[28]
  EC50: 107 µM (not active)

## Cc1cc(Cl)ccc1NC(=S)NNC(=S)Nc1ccc(F)cc1
[29]
  IC50: 0.96 µM (active)
[30]
  IC50: 0.67 µM (active)

## Cn1cc([N+](=O)[O-])c(C(=O)Nc2ccn(Cc3c(F)c(F)cc(F)c3F)n2)n1
[31]
  CC50: 20.8 µM (active)

Reference: ChEMBL document CHEMBL1201862, “PubChem BioAssay data set” (2004)
